Assay results from patent USRE47221E1, “Tricyclic compounds” (AbbVie Inc., priority 2009, dated 2019).

Tests used:
Jak3 = molecular target: T1, Jak3 (Homo sapiens, UniProt P52333); assay: Jak3 enzyme data for selected compounds; type: biochemical
T1 construct: Jak3 enzyme (aa 811-1103); expressed in SF9 cells as a GST fusion; GST; made in house; host or cells: SF9 insect cells
T1 sequence (P52333 811-1103): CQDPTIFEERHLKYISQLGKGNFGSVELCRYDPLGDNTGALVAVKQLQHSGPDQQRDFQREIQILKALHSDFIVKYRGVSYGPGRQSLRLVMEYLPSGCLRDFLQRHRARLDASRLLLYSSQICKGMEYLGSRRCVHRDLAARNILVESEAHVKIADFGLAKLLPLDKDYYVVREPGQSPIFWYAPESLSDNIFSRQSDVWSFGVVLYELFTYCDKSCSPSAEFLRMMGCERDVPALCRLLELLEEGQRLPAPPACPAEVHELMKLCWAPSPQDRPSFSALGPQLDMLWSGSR

SMILES	melting point [°C]	IC50 (Jak3) [nM]
C[C@@H]1C[C@H](NS(=O)(=O)CCC(F)(F)F)C[C@@H]1c1cnc2cnc3[nH]ccc3n12 [Example #7, N-((1S,3S,4R)-3-(3H-imidazo[1,2-a]pyrrolo[2,3-e]pyrazin-8-yl)-4-methylcyclopentyl)-3,3,3-trifluoropropane-1-sulfonamide]	225	–
O=C(N1CCCC1)N1CCC[C@@H](c2ncc3cnc4[nH]ccc4n23)C1 [I.3.1]	–	100 to 1000
C[C@@H]1CCN(C(=O)N2CCC[C@@H]2C#N)C[C@@H]1c1ncc2cnc3[nH]ccc3n12 [J.2.2]	–	< 100
C[C@@H]1CCN(C(=O)N2CCC[C@H]2C#N)C[C@@H]1c1ncc2cnc3[nH]ccc3n12 [J.2.3]	–	< 100
C[C@@H]1CCN(C(=O)N2CC(F)(F)C2)C[C@@H]1c1ncc2cnc3[nH]ccc3n12 [J.2.5]	–	< 100
C[C@@H]1CCN(C(=O)N2CCC2)C[C@@H]1c1ncc2cnc3[nH]ccc3n12 [J.2.6]	–	< 100
C[C@@H]1CCN(C(=O)N2CC[C@@H](F)C2)C[C@@H]1c1ncc2cnc3[nH]ccc3n12 [J.2.7]	–	< 100
C[C@@H]1CCN(C(=O)N2CCC(F)(F)C2)C[C@@H]1c1ncc2cnc3[nH]ccc3n12 [J.2.8]	–	< 100
C[C@@H]1CCN(C(=O)N2CCC[C@@H]2CO)C[C@@H]1c1ncc2cnc3[nH]ccc3n12 [J.2.9]	–	< 100
C[C@@H]1CCN(C(=O)N2CC(F)C2)C[C@@H]1c1ncc2cnc3[nH]ccc3n12 [J.2.11]	–	< 100
C[C@@H]1CCN(C(=O)N2CC[C@H](F)C2)C[C@@H]1c1ncc2cnc3[nH]ccc3n12 [J.2.12]	–	< 100
C[C@@H]1CCN(C(=O)N2CCC[C@H]2C)C[C@@H]1c1ncc2cnc3[nH]ccc3n12 [J.2.13]	–	< 100
C[C@@H]1CCN(C(=O)N2CCCCCC2)C[C@@H]1c1ncc2cnc3[nH]ccc3n12 [J.2.14]	–	< 100
C[C@@H]1CCN(C(=O)N2CCC[C@@H]2C(F)(F)F)C[C@@H]1c1ncc2cnc3[nH]ccc3n12 [J.2.15]	–	< 100
O=C(N1CCC[C@@H](c2ncc3cnc4[nH]ccc4n23)C1)N1CC(F)(F)C1 [J.3.1]	–	< 100
O=C(N1CCC[C@@H](c2ncc3cnc4[nH]ccc4n23)C1)N1CCC(F)(F)C1 [J.3.2]	–	< 100
N#CC1CN(C(=O)N2CCC[C@@H](c3ncc4cnc5[nH]ccc5n34)C2)C1 [J.3.4]	–	< 100

SMILES	melting point [°C]	IC50 (Jak3) [nM]
CC1(C)CCN(C(=O)N2CCC[C@@H](c3ncc4cnc5[nH]ccc5n34)C2)C1 [J.3.6]	–	100 to 1000
O=C(N1CCC[C@@H](c2ncc3cnc4[nH]ccc4n23)C1)N1CCCC(F)(F)C1 [J.3.7]	–	100 to 1000
N#CC1CCN(C(=O)N2CCC[C@@H](c3ncc4cnc5[nH]ccc5n34)C2)CC1 [J.3.8]	–	100 to 1000
CC1(C)CCN(C(=O)N2CCC[C@@H](c3ncc4cnc5[nH]ccc5n34)C2)CC1 [J.3.10]	–	< 100
O=C(N1CCC(Cl)CC1)N1CCC[C@@H](c2ncc3cnc4[nH]ccc4n23)C1 [J.3.11]	–	< 100
O=S(=O)(NC12CCC(c3cnc4cnc5[nH]ccc5n34)(CC1)CC2)C1CC1 [K.3.1]	–	100 to 1000
CC[C@@H]1C[C@H](NS(=O)(=O)CCC(F)(F)F)CN1c1cnc2cnc3[nH]ccc3n12 [K.4.1]	–	< 100
CC[C@@H]1C[C@H](NS(=O)(=O)CC(F)(F)F)C[C@@H]1c1nnc2cnc3[nH]ccc3n12 [K.5.1]	–	< 100
CC[C@@H]1C[C@H](NS(=O)(=O)C2CC2)C[C@@H]1c1nnc2cnc3[nH]cc(C)c3n12 [LL.1.1]	–	100 to 1000
CC[C@@H]1C[C@H](N(CO)S(=O)(=O)C2CC2)C[C@@H]1c1nnc2cnc3[nH]cc(C)c3n12 [LL.1.2]	–	> 1000
CC[C@@H]1C[C@H](NS(=O)(=O)C2CC2)C[C@@H]1c1nnc2cnc3[nH]cc(C#N)c3n12 [LL.1.3]	–	> 1000
CC[C@@H]1C[C@H](S(=O)(=O)CC(F)(F)F)C[C@@H]1c1nnc2cnc3[nH]ccc3n12 [LL.1.4]	–	> 1000
CC[C@@H]1C[C@H](NS(=O)(=O)C2CC2)C[C@@H]1c1nnc2cnc3[nH]cc(I)c3n12 [Preparation #GGG.1, N-((1S,3R,4S)-3-ethyl-4-(8-iodo-6H-pyrrolo[2,3-e][1,2,4]triazolo[4,3-a]pyrazin-1-yl)cyclopentyl)cyclopropanesulfonamide]	–	100 to 1000
C[C@@H]1CCN(C(=O)Nc2ccc(C#N)cc2)C[C@@H]1c1ncc2cnc3[nH]ccc3n12 [QQ.1.4]	–	< 100
CS(=O)(=O)Nc1ccc(-c2nc(C3CCCCC3)n3c2cnc2[nH]ccc23)cc1 [UUU.1.1]	–	< 100
CC[C@@H]1C[C@H](NS(=O)(=O)CCn2cc(C#N)cn2)C[C@@H]1c1nnc2cnc3[nH]ccc3n12 [YY.1.1, 2-(4-cyano-1H-pyrazol-1-yl)-N-((1S,3R,4S)-3-ethyl-4-(6H-pyrrolo[2,3-e][1,2,4]triazolo[4,3-a]pyrazin-1-yl)cyclopentyl)ethanesulfonamide]	–	> 1000
CC[C@@H]1C[C@H](NS(=O)(=O)CCn2cncn2)C[C@@H]1c1nnc2cnc3[nH]ccc3n12 [YY.1.2]	–	> 1000
